Measurements: patent US10086077B2, “Activated macrophage targetable drug carrier for treatment of atherosclerosis and methods of preparing the same” (Korea University Research and Business Foundation, priority 2016, dated 2018)

Key:
ApoE−/− mice [1] = assay: Histopathology of carotid atherosclerotic plaque: H&E, MAC3 and CD 206 staining; assay type: in vivo; conditions: after four weeks (FIG. 9)
Description: Further, the effect of treating atherosclerosis of the drug carrier encapsulated with the lobeglitazone was evaluated by histopathologically analyzing the size of the atherosclerotic plaque reflecting the inflammation degree of the atherosclerotic plaque, distribution of the macrophages, and expression of mannose receptors in the macrophage. The atherosclerotic plaque of the carotid extracted from the arteriosclerosis model mouse was stained by H&E staining, MAC3 staining (macrophage staining), and CD 206 staining (macrophage mannose receptor staining).
FIG. 9 is a photograph illustrating sizes of atherosclerotic plaques by using H&E staining, MAC3 staining, and CD 206 staining in the group administered with the drug carrier according to an example embodiment, the group administered orally with lobeglitazone, and the group administered with no drug. FIG. 9 is a photograph illustrating an atherosclerotic plaque in the carotid extracted from the mouse by CD 206 staining (macrophage mannose receptor staining), MAC3 staining (macrophage staining), and H&E staining, before administrating the drug and after administrating the drug for four weeks, respectively, in a group (MMR-lobe) administrated with a glycol chitosan drug carrier encapsulated with lobeglitazone, a group (PO-Lobe) orally administrated with lobeglitazone, and a group (Control) administered with no drug, respectively.

ApoE−/− mice [2] = assay: In vivo imaging of carotid atherosclerotic plaque, general and in-vivo fluorescence microscope; conditions: 14 mg/kg/week for four weeks, before vs after
From the text: In order to evaluate a possibility of reducing inflammation and a size of the atherosclerotic plaque in vivo of the drug carrier encapsulated with the lobeglitazone, the drug carrier encapsulated with the lobeglitazone was administrated in mice (ApoE−/− mice) causing the atherosclerosis at a carotid branch.
More particularly, the ApoE −/− mice with the atherosclerosis are divided into three groups, and then in the first group, a drug carrier encapsulated with a mannose receptor-specific lobeglitazone was administrated (14 mg/kg/week), in the second group, the same quantity of lobeglitazone was orally administrated (14 mg/kg/week), and in the third group, a treating drug was not administrated. After the drug was administrated for four weeks, the same carotid branch portion was peeled and the size and the inflammation degree of the atherosclerotic plaque before and after treatment were observed and compared by a general microscope and an in-vivo fluorescence microscope.
Particularly, the effect of treating atherosclerosis was evaluated by comparing and analyzing an atherosclerotic size and an inflammation degree before administrating the drug and after administrating the drug for four weeks by administrating a glycol chitosan-based drug carrier (attached with a fluorescent material) capable of imaging an atherosclerotic plaque selectively bound to the mannose receptor over-expressed in the macrophage to an atherosclerotic model mouse and then peeling the carotid branch portion to image the carotid branch portion by an in-vivo fluorescence microscope.
In order to objectively quantify the inflammation degree expressed in the atherosclerotic plaque, a signal of autofluorescence or more of the atherosclerotic plaque measured in the Experimental Example 4 was extracted to quantify the range of signal expression and the degree of signal intensity.

Structure (SMILES): COc1ccc(Oc2cc(N(C)CCOc3ccc(CC4SC(=O)NC4=O)cc3)ncn2)cc1 (stereo not drawn) [lobeglitazone]
- CD 206 (macrophage mannose receptor staining) (ApoE−/− mice [1]; CD 206 staining): decreased
- size of the atherosclerotic plaque (ApoE−/− mice [1]; H&E staining): decreased
- MAC3 (macrophage staining) (ApoE−/− mice [1]; MAC3 staining): decreased
- inflammation degree of the atherosclerosis (ApoE−/− mice [2]; images (FIGS. 5A-5C)): not largely changed
- size of the atherosclerosis (ApoE−/− mice [2]; images (FIGS. 5A-5C)): not largely changed
- fluorescence intensity expressed in the atherosclerotic plaque (ApoE−/− mice [2]; quantified (FIG. 6)): no difference
